Data on one compound can be found in ChEMBL document CHEMBL3046365, “Insecticidal Activity of Pyridalyl: Acute and Sub-Acute Symptoms in Spodoptera litura Larvae” (2004).

Assay [1] concerns Spodoptera litura. Description: Insecticidal activity against fifth-instar Spodoptera litura larvae assessed as mortality compound applied topically measured after 3 days. The class given is functional.
Assay [2] relates to Spodoptera litura. Description: Insecticidal activity against fifth-instar Spodoptera litura larvae assessed as mortality compound applied topically measured after 2 days. The class given is functional.
Assay [3] deals with Spodoptera litura. Description: Insecticidal activity against fifth-instar Spodoptera litura larvae assessed as inhibition of emergence as adult at 1.56 to 25 ng applied topically. The class given is functional, organism-based.
For assay [4], the system named is Spodoptera litura. The assay is described as follows: Insecticidal activity against fifth-instar Spodoptera litura larvae assessed as abnormal body shape at 1.56 to 25 ng applied topically. The class given is functional, organism-based.
Assay [5] has as its system Spodoptera litura. The assay is described as follows: Insecticidal activity against fifth-instar Spodoptera litura larvae assessed as mortality at 1.56 to 25 ng applied topically measured after 5 days. The class given is functional, organism-based.
Assay [6] relates to Spodoptera litura. Description: Insecticidal activity against fifth-instar Spodoptera litura larvae assessed as inhibition of ecdysis at 1.56 to 25 ng applied topically measured after 5 days. The class given is functional, organism-based.
For assay [7], the system named is Spodoptera litura. The assay is described as follows: Insecticidal activity against fifth-instar Spodoptera litura larvae assessed as burn scar on the area where compound applied at 1.56 to 6.25 ng applied topically measured after 4 days. The class given is functional, organism-based.
Assay [8] concerns Spodoptera litura. Description: Insecticidal activity against fifth-instar Spodoptera litura larvae assessed as mortality at 25 ng applied topically measured after 5 days. The class given is functional, organism-based.
In assay [9] the test system is Spodoptera litura. Description: Insecticidal activity against fifth-instar Spodoptera litura larvae at 1.56 to 25 ng applied topically measured up to 1 day. The class given is functional, organism-based.
Assay [10] has as its system Spodoptera litura. Description: Acute insecticidal activity against fifth-instar Spodoptera litura larvae assessed as decrease in body elasticity at 50 to 400 ng applied topically. The class given is functional, organism-based.
The subject of assay [11] is Spodoptera litura. Description: Acute insecticidal activity against fifth-instar Spodoptera litura larvae assessed as decrease in mobility at 50 to 400 ng applied topically. The class given is functional, organism-based.
Assay [12] deals with Spodoptera litura. Description: Acute insecticidal activity against fifth-instar Spodoptera litura larvae assessed as decrease in vigor at 50 to 400 ng applied topically. The class given is functional, organism-based.
Assay [13] deals with Spodoptera litura. The assay is described as follows: Acute insecticidal activity against fifth-instar Spodoptera litura larvae assessed as flaccid paralysis at 50 to 400 ng applied topically. The class given is functional, organism-based.
For assay [14], the system named is Spodoptera litura. The assay is described as follows: Acute insecticidal activity against fifth-instar Spodoptera litura larvae assessed as mortality at 50 ng applied topically measured after 6 hr. The class given is functional, organism-based.
For assay [15], the system named is Spodoptera litura. Description: Acute insecticidal activity against fifth-instar Spodoptera litura larvae assessed as mortality at 400 ng applied topically measured after 2 hr. The class given is functional.
The subject of assay [16] is Spodoptera litura. Description: Acute insecticidal activity against fifth-instar Spodoptera litura larvae assessed as mortality at 200 ng applied topically measured after 3 hr. The class given is functional.
The test system of assay [17] is Spodoptera litura. Description: Acute insecticidal activity against fifth-instar Spodoptera litura larvae assessed as mortality at 400 ng applied topically measured after 1 hr. The class given is functional, organism-based.
In assay [18] the test system is Spodoptera litura. Description: Acute insecticidal activity against fifth-instar Spodoptera litura larvae assessed as mortality at 200 ng applied topically measured after 1 hr. The class given is functional, organism-based.
Assay [19] relates to Spodoptera litura. Description: Acute insecticidal activity against fifth-instar Spodoptera litura larvae assessed as mortality at 100 ng applied topically measured after 6 hr. The class given is functional.
Assay [20] concerns Spodoptera litura. The assay is described as follows: Acute insecticidal activity against fifth-instar Spodoptera litura larvae assessed as mortality at 50 ng applied topically measured within 3 days. The class given is functional.
For assay [21], the system named is Spodoptera litura. The assay is described as follows: Insecticidal activity against fifth-instar Spodoptera litura larvae assessed as mortality compound applied topically measured after 1 day. The class given is functional.

Molecules are shown by their SMILES. Active and inactive are the calls of the source. No cut-off for these calls is given here.

Turning to `FC(F)(F)c1ccc(OCCCOc2c(Cl)cc(OCC=C(Cl)Cl)cc2Cl)nc1` [PYRIDALYL], the LD50 in assay [1] worked out at 24.4 ng; in [2], 50.1 ng; in assay [21] it was 57.3 ng. Further, the result in assay [3], in assay [6], in assay [7], in [8], in assay [10] and in assay [11] was Active. Besides, the outcome in assay [12], in assay [13], in assay [17] and in assay [18] was Active. The inhibition entry in assay [4] and in assay [5] was “Active” each time. Besides, the outcome in assay [9] and in assay [14] was inactive. Besides, the mortality in [15] is on record as 100%; in [16], 100%; in assay [19] it was 100%; in assay [20], greater than 50%.

For orientation: mortality means the percentage killed.
